In US20240181000A1, “LGG-DERIVED PEPTIDES AND METHODS OF USE THEREOF” (Ohio State Innovation Foundation, priority 2021, published 2024):
Marks after values point to notes of the source that are not given here. No end group written: not given here.

Tests used:
APEC O78 membrane = assay: Transmission electron microscopy; type: cell-based, E. coli; details: 10×MIC, 3 h
Protocol: Transmission electron microscopy: To visualize the effect of peptides (P1, P2, and P3) on APEC membrane, transmission electron microscopy (TEM) was performed as described previously. The peptide treatment was performed as described above. […] After incubation, cells were fixed overnight at room temperature with 3% glutaraldehyde & 2% paraformaldehyde), washed, and postfixed with 1% osmium tetroxide (OsO4). The cells were then dehydrated with graded ethanol series and embedding was performed using Embed 812 Kit (Electron Microscopy Sciences, PA). Ultrathin (70 nm) sections were prepared on formvar-carbon coated grids and stained with uranyl acetate and lead citrate. Microscopy was performed using Hitachi H-7500 microscope at MCIC. Untreated bacterial culture was used as control.

APEC = type: in vivo, chickens
Text: FIGS. 57A-57D show the APEC load of chickens (at 7 dpi [days post infection]) treated with either peptides P-1 or P-2.

cecal microbiota = assay: Cecal microbiome analysis (peptides, APEC infected); type: in vivo, chickens
Protocol: Cecal microbiome analysis: To investigate the impact of peptides (P1, P2, and P3) treatment (50 mg/kg and 100 mg/kg) on cecal microbiome of chickens, 16S rRNA based metagenomic study was conducted as previously described. DNA was extracted from 0.2 g of cecal contents using PureLink™ Microbiome DNA Purification Kit (Thermofisher Scientific) and treated with RNase A (2 μL of 100 mg/mL solution per sample; Qiagen) to remove the RNA. DNA quantity and quality were measured using NanoDrop 2000c Spectrophotometer (Thermo Fisher Scientific). The extracted DNA samples were subjected to 16S rRNA V4-V5 sequencing at molecular and cellular imaging center (MCIC), Ohio Agricultural Research and Development Center (OARDC) (mcic.osu.edu/genomics/illumina-sequencing). Amplicon libraries were prepared using IFU KAPA HiFi HotStart ReadyMixPCR Kit (Roche) and PCR clean-up was performed using Agencourt AMPure XP beads (BECKMAN COULTER Life Sciences). Nextera XT DNA Library Preparation Kit (Illumina) was used to generate Illumina library and sequencing was performed using Illumina MiSeq platform generating paired end 300-bp reads.
For the metagenomic analysis, QIIME (Quantitative Insights into Microbial Ecology) 2 bioinformatics platform (qiime2.org/) was used. Quality control of the raw reads was performed using FastQC 0.11.8 (Babraham Bioinformatics). Trimmomatic-0.33 was used to trim the adaptor and other illumina-specific sequences (www.usadellab.org/cms/?page=trimmomatic). The trimmed sequences (fastq.gz) were then imported into the QIIME 2 as a manifest file format (PairedEndManifestPhred33V2). The feature table construction and additional filtering of the sequences was performed using DADA2. The taxonomic analysis was performed using Naive Bayes classifiers trained on the Silva 132 99% OTUs (silva-132-99-nb-classifier.qza) database. The phylogenetic diversity was analyzed using align-to-tree-mafft-fasttree pipeline and alpha ([…]) were analyzed using core-metrics-phylogenetic pipeline (docs.qiime2.org/2019.7/tutorials/moving-pictures/). The statistical difference (P<0.05) in the taxonomic composition between the peptides treated, PC, and NC groups was determined using Mann-Whitney U test. The alpha and beta diversity were analyzed using Kruskal-Wallis and PERMANOVA tests (P<0.05), respectively.

biofilm protected APEC = assay: MBEC-HTP assay; type: cell-based, E. coli; details: at MICs, 18 h; untreated 7.54 ± 0.07
Protocol: MBEC™-HTP assay: To test the efficacy of the peptides (P1, P2, and P3) against biofilm protected APEC, Innovotech's MBEC Assay® was conducted as described previously(27). Briefly, 150 μL of 0.05 OD600 (5×10^7 CFU/mL) adjusted APEC suspension in LB media was aliquoted into the wells of MBEC™ device containing polystyrene pegs and incubated for 36 h on a rocker platform at 37° C. to allow the biofilm formation. After biofilm formation, the pegs were washed to remove loosely adherent planktonic bacteria and transferred to a new 96-well plate (challenge plate) containing peptides at MICs in 200 μL diluted (25%) LB media. The diluted LB media mimics the minimal media which stimulates biofilm formation and maintenance. The plate was incubated for 18 h at 37° C. with rotation at 150 rpm. Sterile media and DMSO (solvent) were used as controls. Following incubation, the MICs of peptides in challenge plate were recorded. The peptides exposed pegs were transferred to new 96-well plate containing PBS and sonicated for 30 mins to disrupt the biofilm. The sonicated suspensions were then ten-fold serially diluted and plated on LB agar plates to enumerate the biofilm protected bacteria and the minimum biofilm eradication concentration (MBEC) of peptides were determined. Three independent experiments were conducted.

PDENK [Peptide P2, PDENK]
APEC membrane in TEM (APEC O78 membrane): membrane either sloughed (or shed), ruptured, or flaccid | Reduction of APEC colonization in cecum (APEC; 50 mg/L in drinking water, 7 dpi): 1.5 log CFU/gm | Bodyweight (APEC; in vivo): no significant effect | Beta-diversity (weighted unifrac) vs NC chickens (cecal microbiota; 50 mg/kg): similar | Beta-diversity (weighted unifrac) vs NC chickens (cecal microbiota; 100 mg/kg): significantly (P<0.01) different | Relative abundance Clostridia (cecal microbiota; class, 100 mg/kg): 64.92% | Relative abundance Lachnospiraceae (cecal microbiota; family, 100 mg/kg): 56.10% | Relative abundance Lactobacillaceae (cecal microbiota; family, 100 mg/kg): 1.38% | Relative abundance Leuconostocaceae (cecal microbiota; family, 100 mg/kg, from 0.31%): 0% | Relative abundance Clostridiaceae 1 (cecal microbiota; family, 100 mg/kg, from 0.53%): 0% | Relative abundance (%) Anaerotruncus (cecal microbiota; genus, 50-mg/kg dose): 0.00% | Relative abundance (%) Bacteroides (cecal microbiota; genus, 50-mg/kg dose): 55.87% | Relative abundance (%) Clostridioides (cecal microbiota; genus, 50-mg/kg dose): 0.00% | Relative abundance (%) Clostridium sensu stricto 1 (cecal microbiota; genus, 50-mg/kg dose): 0.00% | Relative abundance (%) Enterococcus (cecal microbiota; genus, 50-mg/kg dose): 1.24% | Relative abundance (%) Erysipelatoclostridium (cecal microbiota; genus, 50-mg/kg dose): 3.84^a % | Relative abundance (%) Escherichia-Shigella (cecal microbiota; genus, 50-mg/kg dose): 4.95% | Relative abundance (%) Flavonifractor (cecal microbiota; genus, 50-mg/kg dose): 0.68% | Relative abundance (%) Lachnospiraceae (uncultured) (cecal microbiota; genus, 50-mg/kg dose): 2.30% | Relative abundance (%) Oscillibacter (cecal microbiota; genus, 50-mg/kg dose): 0.00% | Relative abundance (%) Pediococcus (cecal microbiota; genus, 50-mg/kg dose): 0.74% | Relative abundance (%) Ruminiclostridium 5 (cecal microbiota; genus, 50-mg/kg dose): 0.23% | Relative abundance (%) Ruminiclostridium 9 (cecal microbiota; genus, 50-mg/kg dose): 1.25% | Relative abundance (%) Ruminococcus gnavus group (cecal microbiota; genus, 50-mg/kg dose): 0.00% | Relative abundance (%) Ruminococcus torques group (cecal microbiota; genus, 50-mg/kg dose): 9.83% | Relative Abundance (%) Blautia (cecal microbiota; genus, 100-mg/kg dose): 0.00% | Relative Abundance (%) Caproiciproducens (cecal microbiota; genus, 100-mg/kg dose): 0.00% | Relative Abundance (%) Lactobacillus (cecal microbiota; genus, 100-mg/kg dose): 0.00% | Relative Abundance (%) Sellimonas (cecal microbiota; genus, 100-mg/kg dose): 0.00^b % | Relative Abundance (%) [Clostridium] innocuum group (cecal microbiota; genus, 100-mg/kg dose): 0.00^b % | Relative Abundance (%) [Eubacterium] coprostanoligenes group (cecal microbiota; genus, 100-mg/kg dose): 0.00% | Relative abundance (%) Anaerotruncus (cecal microbiota; genus, 100-mg/kg dose): 0.00% | Relative abundance (%) Bacillus (cecal microbiota; genus, 100-mg/kg dose): 0.37% | Relative abundance (%) Butyricicoccus (cecal microbiota; genus, 100-mg/kg dose): 1.53% | Relative abundance (%) Clostridiales vadin BB60 group (cecal microbiota; genus, 100-mg/kg dose): 0.00% | Relative abundance (%) Clostridioides (cecal microbiota; genus, 100-mg/kg dose): 0.00% | Relative abundance (%) Clostridium sensu stricto 1 (cecal microbiota; genus, 100-mg/kg dose): 0.00% | Relative abundance (%) Enterococcus (cecal microbiota; genus, 100-mg/kg dose): 2.01% | Relative abundance (%) Erysipelatoclostridium (cecal microbiota; genus, 100-mg/kg dose): 14.71^b % | Relative abundance (%) Escherichia-Shigella (cecal microbiota; genus, 100-mg/kg dose): 13.77% | Relative abundance (%) Flavonifractor (cecal microbiota; genus, 100-mg/kg dose): 0.68^b % | Relative abundance (%) Lachnospiraceae (uncultured) (cecal microbiota; genus, 100-mg/kg dose): 0.73% | Relative abundance (%) Lactococcus (cecal microbiota; genus, 100-mg/kg dose): 0.40% | Relative abundance (%) Oscillibacter (cecal microbiota; genus, 100-mg/kg dose): 0.13% | Relative abundance (%) Paenibacillus (cecal microbiota; genus, 100-mg/kg dose): 0.00% | Relative abundance (%) Pediococcus (cecal microbiota; genus, 100-mg/kg dose): 1.38^b % | Relative abundance (%) Ruminiclostridium 5 (cecal microbiota; genus, 100-mg/kg dose): 0.28% | Relative abundance (%) Ruminiclostridium 9 (cecal microbiota; genus, 100-mg/kg dose): 0.78% | Relative abundance (%) Ruminococcacede UCG-005 (cecal microbiota; genus, 100-mg/kg dose): 2.19% | Relative abundance (%) Ruminococcus torques group (cecal microbiota; genus, 100-mg/kg dose): 10.37% | Relative abundance (%) UBA1819 (cecal microbiota; genus, 100-mg/kg dose): 0.68% | Relative abundance (%) Weissella (cecal microbiota; genus, 100-mg/kg dose): 2.43^a % | Biofilm protected APEC (log CFU/mL) (biofilm protected APEC): 0.00 ± 0.00 log CFU/mL
